According to the OligoGym collection:
Values joined by “and” are separate entries in the source; they are usually repeats but may differ in a detail not shown here. Identical values can stand only once. HELM strings list units from the 5' end as sugar, base in round brackets, then linkage (d deoxyribose, r ribose, m 2'-O-methyl, p phosphodiester). Strings are as the collection lists them, not checked against the first reports. ss, as = sense and antisense strand; [lna] = locked nucleic acid (LNA); [fl2r] = 2'-fluoro

Conditions: siRNA
Note: test system not given here.

Substance	target mRNA knockdown
RNA1{[lna](A)p.r(U)p.r(C)p.r(U)p.r(G)p.r(A)p.r(A)p.r(G)p.r(A)p.r(A)p.r(G)p.r(G)p.r(A)p.r(G)p.r(A)p.r(A)p.r(A)p.r(A)p.r(A)p.[lna](T)p.[lna](T)}|RNA2{[lna](T)p.r(U)p.r(U)p.r(U)p.r(U)p.r(C)p.r(U)p.r(C)p.r(C)p.r(U)p.r(U)p.r(C)p.r(U)p.r(U)p.r(C)p.r(A)p.r(G)p.r(A)p.r(U)p.[lna](T)p.[lna](T)}$$$RNA1{StrandType:ss}|RNA2{StrandType:as}$	65% and 75%
RNA1{[lna](A)p.r(U)p.r(C)p.r(U)p.r(G)p.r(A)p.r(A)p.r(G)p.r(A)p.r(A)p.r(G)p.r(G)p.r(A)p.r(G)p.r(A)p.r(A)p.r(A)p.r(A)p.r(A)p.[lna](T)p.[lna](T)}|RNA2{r(U)p.r(U)p.r(U)p.r(U)p.r(U)p.r(C)p.r(U)p.r(C)p.r(C)p.r(U)p.r(U)p.r(C)p.r(U)p.r(U)p.r(C)p.r(A)p.r(G)p.r(A)p.r(U)p.[lna](T)p.[lna](T)}$$$RNA1{StrandType:ss}|RNA2{StrandType:as}$	93% and 95%
RNA1{[lna](C)p.r(U)p.r(A)p.r(A)p.r(G)p.r(G)p.r(A)p.r(C)p.r(C)p.r(U)p.r(A)p.r(A)p.r(C)p.r(A)p.r(A)p.r(A)p.r(G)p.r(U)p.r(U)p.r(U)p.r(U)}|RNA2{r(A)p.r(A)p.r(C)p.r(U)p.r(U)p.r(U)p.r(G)p.r(U)p.r(U)p.r(A)p.r(G)p.r(G)p.r(U)p.r(C)p.r(C)p.r(U)p.r(U)p.r(A)p.r(G)p.r(U)p.r(U)}$$$RNA1{StrandType:ss}|RNA2{StrandType:as}$	64%
RNA1{[lna](G)p.[lna](C)p.[lna](T)p.r(G)p.r(A)p.r(C)p.[lna](C)p.r(C)p.r(U)p.[lna](G)p.r(A)p.r(A)p.r(G)p.[lna](T)p.[lna](T)p.r(C)p.r(A)p.r(U)p.r(C)p.[lna](T)p.[lna](T)}|RNA2{r(G)p.r(A)p.r(U)p.r(G)p.r(A)p.r(A)p.r(C)p.r(U)p.r(U)p.r(C)p.r(A)p.r(G)p.r(G)p.r(G)p.r(U)p.r(C)p.r(A)p.r(G)p.r(C)p.[lna](T)p.[lna](T)}$$$RNA1{StrandType:ss}|RNA2{StrandType:as}$	0%
RNA1{[lna](G)p.r(C)p.r(A)p.r(G)p.r(C)p.r(A)p.r(C)p.r(G)p.r(A)p.r(C)p.r(U)p.r(U)p.r(C)p.r(U)p.r(U)p.r(C)p.r(A)p.r(A)p.r(G)p.r(U)p.r(U)}|RNA2{r(C)p.[fl2r](U)p.r(U)p.r(G)p.r(A)p.r(A)p.r(G)p.r(A)p.r(A)p.r(G)p.r(U)p.r(C)p.r(G)p.r(U)p.r(G)p.r(C)p.r(U)p.r(G)p.r(C)p.r(U)p.r(U)}$$$RNA1{StrandType:ss}|RNA2{StrandType:as}$	69.3%
RNA1{[lna](G)p.r(C)p.r(A)p.r(G)p.r(C)p.r(A)p.r(C)p.r(G)p.r(A)p.r(C)p.r(U)p.r(U)p.r(C)p.r(U)p.r(U)p.r(C)p.r(A)p.r(A)p.r(G)p.r(U)p.r(U)}|RNA2{r(C)p.m(U)p.r(U)p.r(G)p.r(A)p.r(A)p.r(G)p.r(A)p.r(A)p.r(G)p.r(U)p.r(C)p.r(G)p.r(U)p.r(G)p.r(C)p.r(U)p.r(G)p.r(C)p.r(U)p.r(U)}$$$RNA1{StrandType:ss}|RNA2{StrandType:as}$	68.6%
RNA1{[lna](G)p.r(C)p.r(A)p.r(G)p.r(C)p.r(A)p.r(C)p.r(G)p.r(A)p.r(C)p.r(U)p.r(U)p.r(C)p.r(U)p.r(U)p.r(C)p.r(A)p.r(A)p.r(G)p.r(U)p.r(U)}|RNA2{r(C)p.r(U)p.r(U)p.r(G)p.r(A)p.r(A)p.r(G)p.r(A)p.r(A)p.r(G)p.r(U)p.r(C)p.r(G)p.r(U)p.r(G)p.r(C)p.r(U)p.r(G)p.r(C)p.r(U)p.r(U)}$$$RNA1{StrandType:ss}|RNA2{StrandType:as}$	73.2%
RNA1{[lna](G)p.r(C)p.r(U)p.r(G)p.r(A)p.r(C)p.r(C)p.r(C)p.r(U)p.r(G)p.r(A)p.r(A)p.r(G)p.r(U)p.r(U)p.r(C)p.r(A)p.r(U)p.r(C)p.[lna](T)p.[lna](T)}|RNA2{r(G)p.r(A)p.r(U)p.r(G)p.r(A)p.r(A)p.r(C)p.r(U)p.r(U)p.r(C)p.r(A)p.r(G)p.r(G)p.r(G)p.r(U)p.r(C)p.r(A)p.r(G)p.r(C)p.[lna](T)p.[lna](T)}$$$RNA1{StrandType:ss}|RNA2{StrandType:as}$	61%
RNA1{[lna](G)p.r(G)p.r(A)p.r(U)p.r(G)p.r(A)p.r(G)p.r(G)p.r(A)p.r(A)p.r(G)p.r(G)p.r(C)p.r(A)p.r(A)p.r(U)p.r(U)p.r(U)p.r(A)p.[lna](T)p.[lna](T)}|RNA2{r(U)p.r(A)p.r(A)p.r(A)p.r(U)p.r(U)p.r(G)p.r(C)p.r(C)p.r(U)p.r(U)p.r(C)p.r(C)p.r(U)p.r(C)p.r(A)p.r(U)p.r(C)p.r(C)p.[lna](T)p.[lna](T)}$$$RNA1{StrandType:ss}|RNA2{StrandType:as}$	50%
RNA1{[lna](G)p.r(G)p.r(C)p.r(C)p.r(U)p.r(U)p.r(U)p.r(C)p.r(A)p.r(C)p.r(U)p.r(A)p.r(C)p.r(U)p.r(C)p.r(C)p.r(U)p.r(A)p.r(C)p.[lna](G)p.[lna](A)}|RNA2{r(G)p.r(U)p.r(A)p.r(G)p.r(G)p.r(A)p.r(G)p.r(U)p.r(A)p.r(G)p.r(U)p.r(G)p.r(A)p.r(A)p.r(A)p.r(G)p.r(G)p.r(C)p.r(C)p.r(A)p.r(G)}$$$RNA1{StrandType:ss}|RNA2{StrandType:as}$	83%
RNA1{[lna](G)p.r(G)p.r(C)p.r(C)p.r(U)p.r(U)p.r(U)p.r(C)p.r(A)p.r(C)p.r(U)p.r(A)p.r(C)p.r(U)p.r(C)p.r(C)p.r(U)p.r(A)p.r(C)p.r(G)p.r(A)}|RNA2{r(G)p.r(U)p.r(A)p.r(G)p.r(G)p.r(A)p.r(G)p.r(U)p.r(A)p.r(G)p.r(U)p.r(G)p.r(A)p.r(A)p.r(A)p.r(G)p.r(G)p.r(C)p.r(C)p.r(A)p.r(G)}$$$RNA1{StrandType:ss}|RNA2{StrandType:as}$	86%
RNA1{[lna](T)p.r(C)p.r(C)p.r(A)p.r(G)p.r(A)p.r(A)p.r(C)p.r(A)p.r(A)p.r(A)p.r(G)p.r(G)p.r(A)p.r(A)p.r(A)p.r(C)p.r(G)p.r(G)p.[lna](T)p.[lna](T)}|RNA2{r(C)p.r(C)p.r(G)p.r(U)p.r(U)p.r(U)p.r(C)p.r(C)p.r(U)p.r(U)p.r(U)p.r(G)p.r(U)p.r(U)p.r(C)p.r(U)p.r(G)p.r(G)p.r(A)p.r(T)p.r(T)}$$$RNA1{StrandType:ss}|RNA2{StrandType:as}$	50%
RNA1{[lna](T)p.r(G)p.[lna](A)p.r(G)p.[lna](A)p.r(G)p.r(A)p.r(A)p.[lna](A)p.r(G)p.r(C)p.[lna](A)p.r(C)p.[lna](A)p.r(G)p.r(A)p.[lna](A)p.r(A)p.r(A)p.[lna](T)p.[lna](T)}|RNA2{r(U)p.r(G)p.r(A)p.r(G)p.r(A)p.r(G)p.r(A)p.r(A)p.r(A)p.r(G)p.r(C)p.r(A)p.r(C)p.r(A)p.r(G)p.r(A)p.r(A)p.r(A)p.r(A)p.d(T)p.d(T)}$$$RNA1{StrandType:ss}|RNA2{StrandType:as}$	64%
RNA1{[lna](T)p.r(G)p.[lna](A)p.r(G)p.[lna](A)p.r(G)p.r(A)p.r(A)p.[lna](A)p.r(G)p.r(C)p.[lna](A)p.r(C)p.[lna](A)p.r(G)p.r(A)p.[lna](A)p.r(A)p.r(A)p.[lna](T)p.[lna](T)}|RNA2{r(U)p.r(U)p.r(U)p.r(U)p.r(C)p.r(U)p.r(G)p.r(U)p.r(G)p.r(C)p.r(U)p.r(U)p.r(U)p.r(C)p.r(U)p.r(C)p.r(U)p.r(C)p.r(A)p.r(T)p.r(T)}$$$RNA1{StrandType:ss}|RNA2{StrandType:as}$	68%
